The test system of one experiment is E-tag antibody. As to the kind of experiment: ELISA analysis of phage on antibody raised against ETAG (positive control). Conditions: peptide binding to E-tag antibody; phage ELISA units read at 405 nm. In outline:
(§1)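 Phage from picked clones (M13KO7 helper) bound 2 hr at room temperature to wells coated overnight at 4 °C with 500 ng/well anti-ETAG antibody or LDH, milk-blocked. Detection with HRP-anti-M13 (1:3000) and ABTS at 405 nm; positive when A405 ≥2-fold over background.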

Experiment [1] relates to lactate dehydrogenase (LDH). The experiment in a line: ELISA analysis of phage on LDH (irrelevant, non-specific target). In kind it is binding. Conditions: peptide binding to LDH polypeptide (non-specific binding); phage ELISA units read at 405 nm. The method, boiled down:
as §1
In general terms: In an ELISA, binding on a coated surface is turned into a signal by an enzyme label.

The target of a further experiment is T1, DGI-2 (Homo sapiens, UniProt Q15004).
T1 construct: encompassed the entire DGI-2 open reading frame (ORF); His-tag of vector pIVEX2.3-MCS (inferred from the vector and from the reverse primer lacking a stop codon); made in house; host or cells: cell-free in vitro translation (Rapid Translation System RTS, Roche; E. coli lysate)
T1 sequence (Q15004 1-111): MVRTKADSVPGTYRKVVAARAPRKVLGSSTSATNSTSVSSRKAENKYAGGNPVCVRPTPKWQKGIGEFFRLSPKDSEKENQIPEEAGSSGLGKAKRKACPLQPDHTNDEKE
The experiment in a line: ELISA analysis of phage on DGI-2 polypeptide (specific binding). The following applies: for DGI-2 (OD): binding to DGI-2 polypeptide (specific binding), phage ELISA units read at 405 nm; for DGI-2/LDH (OD): ratio of specific binding to non-specific binding. In outline: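 Recombinant DGI-2 from in vitro translation, LDH (non-specific) and controls were coated at 500 ng/well and blocked with 2% milk-PBS. Phage from individual clones bound for 2 hr at room temperature, then anti-M13-HRP with ABTS was read at 405 nm; a clone counted as positive at ≥2-fold over background.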

As to “QSNVWVLVGVIMQGVWYQRQHYCVYVMLLSDQVSVLLAVA (DGI-2-40F-3-B6; listed as Escherichia coli)”, in the experiment with E-tag antibody, the “ETAG (OD)” value was 1.8 OD. Also, in experiment [1], the “LDH (OD)” value stood at 0.8 OD. In the experiment with DGI-2, the “DGI-2 (OD)” value is on record as 0.9 OD and the “DGI-2/LDH (OD)” value stood at 1.2.
As for “QVGGMTQVGATVLSVVTGRGSCDGEDAWYPPGVTVGLGLC (DGI-2-40F-4-F97; listed as Escherichia coli)”, the “ETAG (OD)” value with E-tag antibody is on record as 14.0 OD. Besides, in experiment [1], the “LDH (OD)” value was determined as 1.0 OD. For the same substance, in the experiment with DGI-2, the “DGI-2 (OD)” value came to 6.7 OD and the “DGI-2/LDH (OD)” value came out at 6.4.
In the same order, the values of “RCFQDGRMLALSPTYLIRRSVSPLVVGPLPTP (DGI-2-40F-3-A24; listed as Escherichia coli)” are 11.7 OD, 0.9 OD, 1.3 OD and 1.4.
In the same order, the values of “RDHRYVGWGRATFRHDQSVW (DGI-2-20F-PP-H1; listed as Escherichia coli)” are 1.4 OD, 1.2 OD, 1.7 OD and 1.4.
As to “RDTMCGSVSWGIPGCEYSGM (DGI-2-20R-4-G122; listed as Escherichia coli)”, in the experiment with E-tag antibody, the “ETAG (OD)” value is recorded as 13.9 OD. Besides, the “LDH (OD)” value in experiment [1] amounted to 1.1 OD. In addition, in the experiment with DGI-2, the “DGI-2 (OD)” value was found to be 7.6 OD and the “DGI-2/LDH (OD)” value was 7.1.
In the same order, the values of “RDTTSQWSWISRGWEFPGWR (DGI-2-20R-3-C2; listed as Escherichia coli)” are 11.9 OD, 1.1 OD, 6.2 OD and 5.8.
Consider “RERWGTAWNLWTEGVVDVRP (DGI-2-20F-3-B5; listed as Escherichia coli)”, for which the “ETAG (OD)” value with E-tag antibody is recorded as 16.4 OD. Also, the “LDH (OD)” value in experiment [1] was 0.9 OD. Besides, in the experiment with DGI-2, the “DGI-2 (OD)” value was 6.1 OD and the “DGI-2/LDH (OD)” value came to 6.6.
“RFWSVSYQGGRVMCREWGYCLPI (DGI-2-40F-3-C92; listed as Escherichia coli)”: the “ETAG (OD)” value in the experiment with E-tag antibody turned out to be 9.8 OD. Besides, the “LDH (OD)” value in experiment [1] was 0.8 OD. Also, in the experiment with DGI-2, the “DGI-2 (OD)” value came out at 2.1 OD and the “DGI-2/LDH (OD)” value turned out to be 2.6.
Turning to “RGSLLLTLPRLSGAVGTAYG (DGI-2-20F-PP-B3; listed as Escherichia coli)”, the “ETAG (OD)” value in the experiment with E-tag antibody is reported as 11.7 OD. Moreover, the “LDH (OD)” value in experiment [1] was found to be 1.1 OD. Also, in the experiment with DGI-2, the “DGI-2 (OD)” value stood at 3.4 OD and the “DGI-2/LDH (OD)” value was found to be 3.0.
In the same order, the values of “RGVNSDMPRLYICRADGQGQ (DGI-2-20F-PP-H6; listed as Escherichia coli)” are 18.9 OD, 0.8 OD, 1.6 OD and 1.9.
In the same order, the values of “RISVGQCGTSRCGGGRRGGG (DGI-2-20F-PP-D1; listed as Escherichia coli)” are 3.0 OD, 1.1 OD, 2.0 OD and 1.9.
With “RKGWGVFCIPGLRFCDWSDP (DGI-2-20R-3-B4; listed as Escherichia coli)”, the “ETAG (OD)” value with E-tag antibody is reported as 17.4 OD. The “LDH (OD)” value in experiment [1] is recorded as 1.0 OD. Besides, in the experiment with DGI-2, the “DGI-2 (OD)” value came to 8.4 OD and the “DGI-2/LDH (OD)” value was determined as 8.6.
In the same order, the values of “RMYNCHYIERLYDWHAGRJLLQDPA (RMYNCHYIERLYDWHAGRILLQDPA; not fully specified; non-natural residue J; DGI-2-20C-4-E926; listed as Escherichia coli)” are 17.4 OD, 1.0 OD, 2.9 OD and 3.0.
In the same order, the values of “RNWLDKDCVWMGDCGARAGE (DGI-2-20F-4-E3; listed as Escherichia coli)” are 16.9 OD, 0.9 OD, 3.8 OD and 4.1.
Take “RPVVCLAGLTLAQFGWVFPGWRGWS (DGI-2-20C-3-C1039; listed as Escherichia coli)”: the “ETAG (OD)” value with E-tag antibody was determined as 11.8 OD. Further, in experiment [1], the “LDH (OD)” value amounted to 1.0 OD. Further, in the experiment with DGI-2, the “DGI-2 (OD)” value stood at 4.7 OD and the “DGI-2/LDH (OD)” value is listed as 4.7.
As for “RQRSGGRWVVDRVTRVASTSP (DGI-2-20F-PP-B12; listed as Escherichia coli)”, the “ETAG (OD)” value in the experiment with E-tag antibody worked out at 1.9 OD. In addition, in experiment [1], the “LDH (OD)” value is 1.1 OD. In addition, in the experiment with DGI-2, the “DGI-2 (OD)” value is listed as 2.3 OD and the “DGI-2/LDH (OD)” value is 2.2.
As to “RRFVRCSVPVALRSAVPVSV (DGI-2-20F-PP-A10; listed as Escherichia coli)”, the “ETAG (OD)” value with E-tag antibody came to 16.3 OD. Moreover, the “LDH (OD)” value in experiment [1] was found to be 1.0 OD. In the experiment with DGI-2, the “DGI-2 (OD)” value amounted to 2.4 OD and the “DGI-2/LDH (OD)” value worked out at 2.4.
In the same order, the values of “RRGVCEIFTGWCVGQTNERP (DGI-2-20R-4-H626; listed as Escherichia coli)” are 13.5 OD, 1.1 OD, 9.6 OD and 8.8.
In the same order, the values of “RRILPWSFPGCGRMC (DGI-2-20R-3-A10; listed as Escherichia coli) [DGJ-2-20R-3-A10]” are 16.4 OD, 1.1 OD, 6.2 OD and 5.9.
In the case of “RRTQPAYRSGADDRTSGFYCYVTSALSAGAWMPFLPRRLA (DGI-2-40F-3-A12; listed as Escherichia coli)”, the “ETAG (OD)” value in the experiment with E-tag antibody was found to be 4.6 OD. Besides, in experiment [1], the “LDH (OD)” value is reported as 0.8 OD. Also, in the experiment with DGI-2, the “DGI-2 (OD)” value is 0.9 OD and the “DGI-2/LDH (OD)” value stood at 1.1.
In the case of “RRTSADTDQLSRWEGAQAFSSLRSALSERLDSLRPGLPPS (DGI-2-40F-3-D9; listed as Escherichia coli)”, in the experiment on E-tag antibody, the “ETAG (OD)” value was 15.8 OD. Also, the “LDH (OD)” value in experiment [1] amounted to 0.8 OD. In the experiment with DGI-2, the “DGI-2 (OD)” value came to 1.1 OD and the “DGI-2/LDH (OD)” value was determined as 1.4.
For “RSIRLQLIDEACQFFDGLCT (DGI-2-20R-3-A8; listed as Escherichia coli)”, the “ETAG (OD)” value in the experiment with E-tag antibody turned out to be 15.3 OD. Besides, the “LDH (OD)” value in experiment [1] is given as 1.1 OD. In the experiment with DGI-2, the “DGI-2 (OD)” value is recorded as 6.9 OD and the “DGI-2/LDH (OD)” value is 6.4.
As to “RSQVRVVSRERSTPVLIHIRIECLLFSGWCVTSGSDEGVVWG [DGI-2-40F-4-F122]”, the “ETAG (OD)” value in the experiment with E-tag antibody is given as 8.1 OD. In experiment [1], the “LDH (OD)” value stood at 0.8 OD. Also, in the experiment with DGI-2, the “DGI-2 (OD)” value is reported as 4.7 OD and the “DGI-2/LDH (OD)” value worked out at 5.7.
In the same order, the values of “RSRSSSGASGSMLRVQNHMVLGSWMVRQPMGSMTPFHGHG (DGI-2-40F-3-B5; listed as Escherichia coli)” are 9.2 OD, 0.9 OD, 1.0 OD and 1.2.
In the same order, the values of “RSYPRLCKQKGGVIGRMLPG (DGI-2-20F-PP-B2; listed as Escherichia coli)” are 35.9 OD, 1.1 OD, 3.3 OD and 2.9.
In the same order, the values of “RTLFINGGCCGKGSGGGRPL (DGI-2-20F-PP-G1; listed as Escherichia coli)” are 21.8 OD, 1.0 OD, 1.4 OD and 1.4.
As for “RVSYEMLGRRRRSMHGSSMR (DGI-2-20F-PP-A4; listed as Escherichia coli)”, the “ETAG (OD)” value in the experiment on E-tag antibody turned out to be 6.6 OD. The “LDH (OD)” value in experiment [1] is 1.1 OD. Moreover, in the experiment with DGI-2, the “DGI-2 (OD)” value was 2.7 OD and the “DGI-2/LDH (OD)” value is 2.6.
Take “RWSICRGLQYSIPGCAVEDLSDVMA (DGI-2-20C-4-H316; listed as Escherichia coli)”: the “ETAG (OD)” value in the experiment with E-tag antibody came out at 7.2 OD. Besides, the “LDH (OD)” value in experiment [1] worked out at 1.0 OD. Besides, in the experiment with DGI-2, the “DGI-2 (OD)” value amounted to 3.8 OD and the “DGI-2/LDH (OD)” value is recorded as 3.9.
Turning to “RWSLPAYLCRFVSQASCNSR (DGI-2-20R-3-C12; listed as Escherichia coli)”, the “ETAG (OD)” value in the experiment on E-tag antibody was found to be 14.6 OD. Moreover, the “LDH (OD)” value in experiment [1] is given as 1.0 OD. Moreover, in the experiment with DGI-2, the “DGI-2 (OD)” value is listed as 1.6 OD and the “DGI-2/LDH (OD)” value turned out to be 1.6.
In the case of “S#ARSLMTGVVAVCIVWRGP (SARSLMTGVVAVCIVWRGP; DGI-2-20F-PP-E8; listed as Escherichia coli)”, the “ETAG (OD)” value in the experiment on E-tag antibody is 36.3 OD. In experiment [1], the “LDH (OD)” value was found to be 1.0 OD. Moreover, in the experiment with DGI-2, the “DGI-2 (OD)” value came to 2.5 OD and the “DGI-2/LDH (OD)” value was 2.6.
“SAFGCPLPRALGGGGARFYA (DGI-2-20F-PP-E11; listed as Escherichia coli)”: the “ETAG (OD)” value in the experiment on E-tag antibody stood at 15.2 OD. In addition, in experiment [1], the “LDH (OD)” value stood at 0.9 OD. In addition, in the experiment with DGI-2, the “DGI-2 (OD)” value is on record as 2.0 OD and the “DGI-2/LDH (OD)” value was determined as 2.2.
